Active and inactive are the calls of the source. The rule behind the calls is not given here.
How the values were obtained:
[1] = test system: Calvarial osteoblast; experiment: Osteogenic activity in rat primary calvarial osteoblasts assessed as induction of ALP activity at 1 pM to 1 uM after 10 days by colorimetry; format: functional, cell-based
[2] = test system: Ishikawa; experiment: Estrogenic activity in ER expressing human Ishikawa cells assessed as induction of ALP activity at 100 pM relative to control; format: functional
[3] = test system: Ishikawa; experiment: Estrogenic activity in ER expressing human Ishikawa cells assessed as induction of ALP activity at 10 nM; format: functional, cell-based
[4] = test system: Calvarial osteoblast; experiment: Osteogenic activity in rat calvarial osteoblasts assessed as induction of ALP activity at 10 nM after 48 hrs by spectrophotometry in presence of anti-estrogen ICI-182780; format: functional, cell-based
[5] = Toxicity in rat calvarial osteoblast cells at 1 pM to 1 uM after 48 hrs by MTT assay; format: cell-based
[6] = test system: Calvarial osteoblast; experiment: Induction of rat calvarial osteoblast mineralization assessed as increase in formation of mineralized calcium nodules at 10 nM after 21 days by alizarin red-S staining-based assay; format: functional, cell-based
[7] = test system: Rattus norvegicus; experiment: Osteogenic activity in rat assessed as increase in ALP expression in calvaria at 1 mg/kg, sc qd for 3 days by qPCR analysis; format: functional, organism-based; design: dose 1 mg/kg
[8] = test system: Rattus norvegicus; experiment: Osteogenic activity in rat assessed as increase in ALP expression in calvaria at 5 mg/kg, sc qd for 3 days by qPCR analysis; format: functional, organism-based; design: dose 5 mg/kg
[9] = test system: Rattus norvegicus; experiment: Osteogenic activity in rat assessed as increase in ALP expression in calvaria administered as sc qd for 3 days by qPCR analysis; format: functional, organism-based
[10] = test system: Rattus norvegicus; experiment: Osteogenic activity in rat assessed as increase in ALP expression in calvaria at 10 mg/kg, sc qd for 3 days by qPCR analysis; format: functional, organism-based; design: dose 10 mg/kg
[11] = test system: Rattus norvegicus; experiment: Osteogenic activity in rat assessed as increase in collagen-1 expression in calvaria at 1 mg/kg, sc qd for 3 days by qPCR analysis; format: functional, organism-based; design: dose 1 mg/kg
[12] = test system: Rattus norvegicus; experiment: Osteogenic activity in rat assessed as increase in collagen-1 expression in calvaria at 5 mg/kg, sc qd for 3 days by qPCR analysis; format: functional, organism-based; design: dose 5 mg/kg
[13] = test system: Rattus norvegicus; experiment: Osteogenic activity in rat assessed as increase in collagen-1 expression in calvaria at 10 mg/kg, sc qd for 3 days by qPCR analysis; format: functional, organism-based; design: dose 10 mg/kg
[14] = test system: Ishikawa; experiment: Estrogenic activity in ER expressing human Ishikawa cells assessed as induction of ALP activity at 1 pM to 1 uM; format: functional, cell-based
[15] = test system: Ishikawa; experiment: Antiestrogenic activity in ER expressing human Ishikawa cells assessed as inhibition of ALP activity at 1 pM to 1 uM; format: functional, cell-based
[16] = test system: Calvarial osteoblast; experiment: Osteogenic activity in rat primary calvarial osteoblasts assessed as induction of ALP activity at 1 pM to 1 uM after 10 days by colorimetry in presence of anti-estrogen ICI-182780; format: functional, cell-based
[17] = test system: Ishikawa; experiment: Estrogenic activity in ER expressing human Ishikawa cells assessed as induction of ALP activity at 1 pM to 1 uM in presence of 17beta-E2; format: functional, cell-based
[18] = Upregulation of BMP-2 in rat primary calvarial osteoblast cells after 48 hrs by qPCR analysis relative to control; format: functional, cell-based
[19] = test system: Calvarial osteoblast; experiment: Induction of rat calvarial osteoblast mineralization assessed as increase in formation of mineralized calcium nodules at 1 pM after 21 days by alizarin red-S staining-based assay; format: functional, cell-based
[20] = test system: Calvarial osteoblast; experiment: Osteogenic activity in rat primary calvarial osteoblasts assessed as induction of ALP activity at 1 pM after 10 days by colorimetry; format: functional, cell-based

Compound: O=c1c(O[C@@H]2O[C@H](CO)[C@@H](O)[C@H](O)[C@H]2O)c(-c2ccc(O)cc2)oc2cc(O)cc(O)c12
- Activity [1]: inactive

Compound: C[C@]12CC[C@@H]3c4ccc(O)cc4CC[C@H]3[C@@H]1CC[C@@H]2O [ESTRADIOL]
- fold change (FC) [2]: 1.5

Compound: COc1ccc(-c2coc3cc(O[C@@H]4O[C@H](CO[C@@H]5OC[C@](O)(CO)[C@H]5O)[C@@H](O)[C@H](O)[C@H]4O)cc(O)c3c2=O)cc1
- Activity [1]: inactive

Compound: COc1ccc(-c2coc3cc(O)cc(O)c3c2=O)cc1 [BIOCHANIN]
- Activity [1]: Active
- Activity [3]: Active
- Activity [4]: inactive
- Activity [5]: Non-toxic
- Activity [6]: Active

Compound: COc1cc(OC)c(-c2coc3cc(O[C@@H]4O[C@H](CO[C@@H]5OC[C@](O)(CO)[C@H]5O)[C@@H](O)[C@H](O)[C@H]4O)c(OC)c(O)c3c2=O)cc1OC
- Activity [1]: Active
- Activity [7]: Active
- Activity [8]: Active
- Activity [9]: Dose-dependent effect
- Activity [10]: inactive
- Activity [11]: Active
- Activity [12]: inactive
- Activity [13]: inactive
- Activity [14]: inactive
- Activity [15]: inactive
- Activity [16]: Active
- inhibition [17]: inactive
- fold change (FC) [18]: 15
- Activity [5]: Non-toxic
- Activity [19]: Active
- Activity [20]: Active

Compound: C[C@@H]1O[C@@H](OC[C@H]2O[C@@H](Oc3c(-c4ccc(O)cc4)oc4cc(O)cc(O)c4c3=O)[C@H](O)[C@@H](O)[C@@H]2O)[C@H](O)[C@H](O)[C@H]1O
- Activity [1]: inactive

Compound: C[C@@H]1O[C@@H](OC[C@H]2O[C@@H](Oc3c(-c4ccc(O)c(O)c4)oc4cc(O)cc(O)c4c3=O)[C@H](O)[C@@H](O)[C@@H]2O)[C@H](O)[C@H](O)[C@H]1O
- Activity [1]: inactive

Compound: O=c1c(-c2ccc(O)cc2)coc2cc(O)cc(O)c12 [GENISTEIN]
- Activity [1]: Active
- Activity [14]: inactive
- Activity [15]: inactive
- Activity [16]: Active
- inhibition [17]: inactive
- fold change (FC) [18]: 5
- Activity [5]: Non-toxic
- Activity [6]: Active

Compound: O=c1c(O[C@@H]2O[C@H](CO)[C@@H](O)[C@H](O)[C@H]2O)c(-c2ccc(O)c(O)c2)oc2cc(O)cc(O)c12
- Activity [1]: inactive

Compound: COc1cc([C@H]2OC[C@H]3[C@@H]2CO[C@@H]3c2cc(OC)c(O[C@@H]3O[C@H](CO)[C@@H](O)[C@H](O)[C@H]3O)c(OC)c2)cc(OC)c1O
- Activity [1]: inactive

Compound: COc1ccc(-c2coc3cc(O)cc(O)c3c2=O)cc1O [PRATENSEIN]
- Activity [1]: Active
- Activity [14]: inactive
- Activity [15]: inactive
- Activity [16]: Active
- inhibition [17]: inactive
- Activity [5]: Non-toxic
- Activity [6]: Active

Compound: COC(=O)C/C(=C\c1ccc(O)c(O)c1)C(=O)O
- Activity [1]: inactive

Compound: COc1cc(OC)c(-c2coc3cc(O[C@@H]4O[C@H](CO)[C@@H](O)[C@H](O)[C@H]4O)c(OC)c(O)c3c2=O)cc1OC
- Activity [1]: inactive

Compound: COc1cc(OC)c(-c2coc3cc(O)c(OC)c(O)c3c2=O)cc1OC
- Activity [1]: inactive

Compound: COc1ccc(-c2coc3cc(O[C@@H]4O[C@H](CO[C@@H]5OC[C@](O)(CO[C@@H]6OC[C@](O)(CO)[C@H]6O)[C@H]5O)[C@@H](O)[C@H](O)[C@H]4O)cc(O)c3c2=O)cc1
- Activity [1]: inactive

Reference: ChEMBL document CHEMBL1944622, “Constituents of Dalbergia sissoo Roxb. leaves with osteogenic activity” (Bioorg Med Chem Lett, 2012)
